Results on 29 compounds are retold here after patent publication US7550456B2, “Substituted aryl cycloalkanoyl derivatives and methods of their use” (Wyeth, priority 2003, dated 2009).

Structures are written as SMILES. Counter-ions that a name gives are not always drawn.

T1 sequence (P23975 whole entry): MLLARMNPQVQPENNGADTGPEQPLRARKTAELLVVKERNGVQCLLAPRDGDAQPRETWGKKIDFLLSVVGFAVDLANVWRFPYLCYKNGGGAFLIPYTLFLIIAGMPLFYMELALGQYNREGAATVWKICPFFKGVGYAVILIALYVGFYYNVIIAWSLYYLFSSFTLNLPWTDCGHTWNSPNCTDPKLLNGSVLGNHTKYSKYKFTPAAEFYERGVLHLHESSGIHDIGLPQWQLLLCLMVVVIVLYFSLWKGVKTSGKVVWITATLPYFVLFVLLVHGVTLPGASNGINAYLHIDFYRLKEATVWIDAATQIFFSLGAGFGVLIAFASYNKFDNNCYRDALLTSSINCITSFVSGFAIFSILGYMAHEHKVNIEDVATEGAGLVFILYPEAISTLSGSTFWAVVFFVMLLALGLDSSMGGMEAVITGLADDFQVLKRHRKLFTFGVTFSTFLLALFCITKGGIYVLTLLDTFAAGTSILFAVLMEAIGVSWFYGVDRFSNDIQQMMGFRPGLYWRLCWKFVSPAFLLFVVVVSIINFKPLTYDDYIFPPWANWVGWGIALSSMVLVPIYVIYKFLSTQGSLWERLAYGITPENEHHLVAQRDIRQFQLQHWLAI

The first assay concerns the target T1, human hNET (Homo sapiens, UniProt P23975).
T1 construct: expressed in transfected cells; host or cells: MDCK-Net6 (MDCK cells, stably transfected)
Nature of the assay: Norepinephrine (NE) uptake assay in MDCK-Net6 cells. In kind it is cell-based. The note with it: 1 μM test compound, [3H]NE uptake, read-out: % Inhibition @ 1 μM (hNET). On the procedure:
Cells were plated at 300,000/T75 flask and cells were split twice weekly. […] Cells were plated at 250,000 cells/T75 flask and split twice weekly.
Norepinephrine (NE) Uptake Assay
On day 1, cells were plated at 3,000 cells/well in growth medium and maintained in a cell incubator (37° C., 5% CO2). On day 2, growth medium was replaced with 200 μl of assay buffer (25 mM HEPES; 120 mM NaCl; 5 mM KCl; 2.5 mM CaCl2; 1.2 mM MgSO4; 2 mg/ml glucose (pH 7.4, 37° C.)) containing 0.2 mg/ml ascorbic acid and 10 μM pargyline. Plates containing cells with 200 μl of assay buffer were equilibrated for 10 minutes at 37° C. prior to addition of compounds. A stock solution of desipramine was prepared in DMSO (10 mM) and delivered to triplicate wells containing cells for a final test concentration of 1 μM. Data from these wells were used to define non-specific NE uptake (minimum NE uptake). Test compounds were prepared in DMSO (10 mM) and diluted in assay buffer according to test range (1 to 10,000 nM). Twenty-five microliters of assay buffer (maximum NE uptake) or test compound were added directly to triplicate wells containing cells in 200 μl of assay buffer. The cells in assay buffer with test compounds were incubated for 20 minutes at 37° C. […] The reaction was terminated by decanting the supernatant from the plate. The plates containing cells were washed twice with 200 μl assay buffer (37° C.) to remove free radioligand. The plates were then inverted, left to dry for 2 minutes, then reinverted and air-dried for an additional 10 minutes. The cells were lysed in 25 μl of 0.25 N NaOH solution (4° C.), placed on a shake table and vigorously shaken for 5 minutes. After cell lysis, 75 μl of scintillation cocktail was added to each well and the plates were sealed with film tape. The plates were returned to the shake table and vigorously shaken for a minimum of 10 minutes to ensure adequate partitioning of organic and aqueous solutions. The plates were counted in a Wallac Microbeta counter (PerkinElmer) to collect the raw cpm data.
For each experiment, a data stream of cpm values collected from the Wallac Microbeta counter was downloaded to a Microsoft Excel statistical application program. Calculations of EC50 values were made using the transformed-both-sides logistic dose response program written by Wyeth Biometrics Department.
Turning to `CN1CCN(CC(c2ccc(OCc3ccccc3)c(Cl)c2)C2(O)CCCCC2)CC1` (stereo not shown) [Example 293, 1-[1-[4-(benzyloxy)-3-chlorophenyl]-2-(4-methylpiperazin-1-yl)ethyl]cyclohexanol dihydrochloride], the inhibition at 1 µM was determined as 96%.
Turning to `CN1CCN(CC(c2cc(Br)c(OCc3ccccc3)c(Br)c2)C2(O)CCCCC2)CC1` (stereo not shown) [Example 393, 1-[1-[4-(benzyloxy)-3,5-dibromophenyl]-2-(4-methylpiperazin-1-yl)ethyl]cyclohexanol dihydrochloride], the inhibition at 1 µM is 59%.
On the same count and under the same terms, the result for `N#Cc1ccccc1-c1ccc(C(CN2CCNCC2)C2(O)CCCCC2)cc1` (stereo not shown) [Example 290, 4′-[1-(1-hydroxycyclohexyl)-2-piperazin-1-ylethyl]-1,1′-biphenyl-2-carbonitrile dihydrochloride] reads 36%; that for `OC1(C(CN2CCNCC2)c2ccc(OC(F)(F)F)cc2)CCCCC1` (stereo not shown) [Example 28, 1-{2-piperazin-1-yl-1-[4-(trifluoromethoxy)phenyl]ethyl}cyclohexanol dihydrochloride], 80%.
On to `OC1(C(CN2CCNCC2)c2ccc(OCc3cccc(C(F)(F)F)c3)c(Cl)c2)CCCCC1` (stereo not shown) [Example 423, 1-[1-(3-chloro-4-{[3-(trifluoromethyl)benzyl]oxy}phenyl)-2-piperazin-1-ylethyl]cyclohexanol dihydrochloride], for which the inhibition at 1 µM was found to be 79%.
Same read-out and setting: in the case of `CN1CCN(CC(c2ccc(-c3cccc(Cl)c3)cc2)C2(O)CCCCC2)CC1` (stereo not shown) [Example 176, 1-[1-(3′-chloro-1,1′-biphenyl-4-yl)-2-(4-methylpiperazin-1-yl)ethyl]cyclohexanol dihydrochloride] it was 28%; in that of `C=Cc1ccc(C(CN2CCNCC2)C2(O)CCCCC2)cc1` (stereo not shown) [Example 163, 1-[2-piperazin-1-yl-1-(4-vinylphenyl)ethyl]cyclohexanol dihydrochloride], 17%; in that of `OC1(C(CN2CCNCC2)c2cccc(Oc3ccccc3)c2)CCCCC1` (stereo not shown) [Example 311, 1-[1-(3-phenoxyphenyl)-2-piperazin-1-ylethy]cyclohexanol dihydrochloride], 86.2%.
Still for that read-out and setting: the result for `CN1CCN(CC(c2cccc(C#N)c2)C2(O)CCCCC2)CC1` (stereo not shown) [Example 161, 1-[1-(3-cyanophenyl)-2-(4-methylpiperazin-1-yl)ethyl]cyclohexanol dihydrochloride] reads 70%.
On the same count and under the same terms, the result for `CC1(C)CCCC1(O)C(CN1CCNCC1)c1cccc(OC(F)(F)F)c1` (stereo not shown) [Example 396, 2,2-dimethyl-1-{2-piperazin-1-yl-1-[3-(trifluoromethoxy)phenyl]ethyl}cyclopentanol dihydrochloride] reads 33%; that for `CN1CCN(CC(c2ccc(-c3cc(Cl)cc(Cl)c3)cc2)C2(O)CCC2)CC1` (stereo not shown) [Example 297, 1-[1-(3′,5′-dichloro-1,1′-biphenyl-4-yl)-2-(4-methylpiperazin-1-yl)ethyl]cyclobutanol dihydrochloride], 4%.
In the case of `OC1(C(CN2CCNCC2)c2ccc(OCc3ccc(C(F)(F)F)cc3)c(F)c2)CCCCC1` (stereo not shown) [Example 415, 1-[1-(3-fluoro-4-{[4-(trifluoromethyl)benzyl]oxy}phenyl)-2-piperazin-1-ylethyl]cyclohexanol dihydrochloride], the inhibition at 1 µM amounted to 84%.
The same measure, in the same setting: in the case of `COc1cc(C(CN2CCN(C)CC2)C2(O)CCCCC2)ccc1OCc1ccccc1` (stereo not shown) [Example 443, 1-[1-[4-(benzyloxy)-3-methoxyphenyl]-2-(4-methylpiperazin-1-yl)ethyl]cyclohexanol dihydrochloride] it was 90%; in that of `CC(C)COc1ccc(C(CN2CCNCC2)C2(O)CCCCC2)cc1OC(F)(F)F` (stereo not shown) [Example 406, 1-{1-[4-isobutoxy-3-(trifluoromethoxy)phenyl]-2-piperazin-1-ylethyl}cyclohexanol dihydrochloride], 22%; in that of `COc1ccc(C(CN2CCN(C)CC2)C2(O)CCCCC2)cc1-c1ccc(C(F)(F)F)cc1` (stereo not shown) [Example 257, 1-[1-[6-methoxy-4′-(trifluoromethyl)-1,1′-biphenyl-3-yl]-2-(4-methylpiperazin-1-yl)ethyl]cyclohexanol dihydrochloride], 17%.
The same measure, in the same setting: in the case of `N#Cc1cccc(-c2ccc(C(CN3CCNCC3)C3(O)CCCCC3)cc2)c1` (stereo not shown) [Example 168, 1-[1-(3′-cyano-1,1′-biphenyl-4-yl)-2-piperazin-1-ylethyl]cyclohexanol dihydrochloride] it was 66%.
On the same count and under the same terms, the result for `COc1cc(C(CN2CCN(C)CC2)C2(O)CCCCC2)ccc1OCc1ccc2ccccc2c1` (stereo not shown) [Example 445, 1-[1-[3-methoxy-4-(2-naphthylmethoxy)phenyl]-2-(4-methylpiperazin-1-yl)ethyl]cyclohexanol dihydrochloride] reads 22%.
Regarding `OC1(C(CN2CCNCC2)c2ccc(OCc3ccccc3)c(C(F)(F)F)c2)CCCCC1` (stereo not shown) [Example 263, 1-{1-[4-(benzyloxy)-3-(trifluoromethyl)phenyl]-2-piperazin-1-ylethyl}cyclohexanol dihydrochloride], the inhibition at 1 µM stood at 31%.
Turning to `C[C@H](Oc1ccc(C(CN2CCN(C)CC2)C2(O)CCCCC2)cc1)c1ccccc1` (stereo partly drawn) [Example 470, 1-(2-(4-methylpiperazin-1-yl)-1-{4-[(1S)-1-phenylethoxy]phenyl}ethyl)cyclohexanol dihydrochloride], the inhibition at 1 µM is 14%.
Same read-out and setting: the result for `OC1(C(CN2CCNCC2)c2cccc(OC(F)(F)F)c2)CCC1` (stereo not shown) [Example 46, 1-{2-piperazin-1-yl-1-[3-(trifluoromethoxy)phenyl]ethyl}cyclobutanol dihydrochloride] reads 44%; that for `COc1ccc(CCOc2ccc(C(CN3CCN(C)CC3)C3(O)CCCCC3)cc2)cc1` (stereo not shown) [Example 466, 1-[1-{{4-[2-(4-methoxyphenyl)ethoxy]phenyl}-2-(4-methylpiperazin-1-yl)ethyl]cyclohexanoldihydrochloride], 20%.
Same read-out and setting: the result for `OC1([C@H](CN2CCN3CCCCC3C2)c2cccc(OC(F)(F)F)c2)CCCCC1` (stereo partly drawn) [Example 371, 1-{(1S)-2-(octahydro-2H-pyrido[1,2-a]pyrazin-2-yl)-1-[3-(trifluoromethoxy)phenyl]ethyl}cyclohexanol dihydrochloride] reads 78%; that for `OC1(C(CN2CCNCC2)c2ccccc2-c2ccc3c(c2)OCO3)CCCCC1` (stereo not shown) [Example 151, 1-{1-[2-(1,3-benzodioxol-5-yl)phenyl]-2-piperazin-1-ylethyl}cyclohexanol dihydrochloride], 12%; that for `OC1(C(CN2CCNCC2)c2ccc(OCc3ccc(C(F)(F)F)cc3)c(Cl)c2)CCCCC1` (stereo not shown) [Example 419, 1-[1-(3-chloro-4-{[4-(trifluoromethyl)benzyl]oxy}phenyl)-2-piperazin-1-ylethyl]cyclohexanol dihydrochloride], 46%.
The same measure, in the same setting: the result for `COc1cc(C(CN2CCN(C)CC2)C2(O)CCCCC2)cc(Br)c1OCc1ccccc1` (stereo not shown) [Example 391, 1-[1-[4-(benzyloxy)-3-bromo-5-methoxyphenyl]-2-(4-methylpiperazin-1-yl)ethyl]cyclohexanol dihydrochloride] reads 30%; that for `OC1(C(CN2CCN(CC3CCCCC3)CC2)c2ccc(Oc3ccccc3)cc2)CCCCC1` (stereo not shown) [Example 309, 1-[2-[4-(cyclohexylmethyl)piperazin-1-yl]-1-(4-phenoxyphenyl)ethyl]cyclohexanol dihydrochloride], 19.7%; that for `CCOc1ccc(C(CN2CCNCC2)C2(O)CCCCC2)cc1OC(F)(F)F` (stereo not shown) [Example 404, 1-{1-[4-ethoxy-3-(trifluoromethoxy)phenyl]-2-piperazin-1-ylethyl}cyclohexanol dihydrochloride], 42%.

The same assay, now with this note: MDCK-Net6, read-out: % Inhibition @ 1 μM (hNET), 1 μM test compound, [3H]NE uptake.
In the case of `CN1CCN(C[C@@H](c2cccc(OC(F)(F)F)c2)C2(O)CCCCC2)CC1` [Example 246, 1-{(1R)-2-(4-methylpiperazin-1-yl)-1-[3-(trifluoromethoxy)phenyl]ethyl}cyclohexanol dihydrochloride], the inhibition at 1 µM was 7.4%.

Still in this assay, the particulars now being: [3H]NE uptake, test range 1 to 10,000 nM.
`CN1CCN(CC(c2cccc(C#N)c2)C2(O)CCCCC2)CC1` (stereo not shown) [Example 161, 1-[1-(3-cyanophenyl)-2-(4-methylpiperazin-1-yl)ethyl]cyclohexanol dihydrochloride] came in with a concentration for a half-maximal effect (EC50) of 220 nM. This counts as sub-micromolar.
Still for that read-out and setting: the result for `CN1CCN(C[C@@H](c2ccc(OCc3ccccc3)cc2)C2(O)CCCCC2)CC1` [Example 412, 1-[(2R)-1-[4-(benzyloxy)phenyl]-2-(4-methylpiperazin-1-yl)ethyl]cyclohexanol dihydrochloride] reads 138 nM.
On the same count and under the same terms, the result for `N#Cc1cccc(-c2ccc(C(CN3CCNCC3)C3(O)CCCCC3)cc2)c1` (stereo not shown) [Example 168, 1-[1-(3′-cyano-1,1′-biphenyl-4-yl)-2-piperazin-1-ylethyl]cyclohexanol dihydrochloride] reads 180 nM.
